Assay results reported in publication PMC6017400, “Investigation into Improving the Aqueous Solubility of the Thieno[2,3-b]pyridine Anti-Proliferative Agents” (Molecules : A Journal of Synthetic Chemistry and Natural …, 2018).
≈ marks a conversion by molar mass, not a printed value. Where “and” joins values, the source holds several entries; their conditions need not be identical. Equal values may be shown once. Read-outs that look alike come from different tables or passages of the source.

Legend:
[1] = Aqueous thermodynamic solubility by HPLC; format: physicochemical; conditions: for solubility thermodynamic at 15 min / solubility at 15 min: thermodynamic from solid; for solubility thermodynamic at 15 min / solubility at 15 min / Experimental S: water; for solubility thermodynamic at 15 min: read-out: Experimental S
Experimental: The aqueous thermodynamic solubility of derivatives 1–7 were measured using a standard HPLC (High Performance Liquid Chromatography) procedure. Solubility is defined as the amount of substance that passes into solution in order to establish the equilibrium at constant temperature and pressure and, thus, produce a saturated solution. The water solubility (log S) and log P were calculated for comparison.
Intrinsic aqueous drug solubility was determined by forming a supersaturated solution of the drug compound in water. The suspension was sonicated for 15 min and centrifuged at 13,000 rpm for 6 min. After 15 min the supernatant was decanted and the total drug content solubilised was analysed using reverse phase HPLC. The solution was analysed using an Agilent 1260 Infinity/DAD (100–900 nm) (Waldbronn, Germany) with a Zorbax eclipse XDB ([…], 4.6 mm × 150 mm) (Waldbronn, Germany) column. The mobile phase comprised of 80:20 acetonitrile: H2O containing 45 mM ammonium formate buffered to pH 3.5 with formic acid. Flow rate was 1 mL/min with 5 μL injection volume.

[2] = Drug loading into Ch5 polymer (UV-VIS); format: physicochemical; conditions: 6 mg/mL, 10:1 feed ratio
Experimental: The maximum compound solubilisation observed was 6 mg/mL at a 10:1 ratio, with 0.59 mg/mL drug encapsulation being achieved.
Polymer solutions of 1 mg/mL, 3 mg/mL, and 6 mg/mL were made up in deionised water and probe sonicated for 10 min to ensure aggregation of the self-assemblies was achieved. Compound 2 was added in 1:1, 5:1, and 10:1 initial drug: excipient weight ratios and the drug-polymer solutions were probe sonicated for a further 10 min to ensure maximum encapsulation was achieved. After cooling to room temperature, the solutions were filtered using 0.45 µm syringe filters (with prefilters) to ensure any excess un-encapsulated drugs were removed. Drug quantification was carried out using UV-VIS spectroscopy with the samples diluted in DMSO. Absorbance was measured at 304 nm. Calibration was run from 0.0039–0.0313 mg/mL with R^2 = 0.992 (see Supplementary Materials Figure S3 for the calibration plot).

[3] = In vitro drug release from polymer into PBS; format: physicochemical; conditions: 37 °C
Experimental: The formulation (1 mL) was pipetted inside dialysis tubing (MW cut off = 12–14 kDa) and dialysed against PBS in sink (100 mL, 0.2 M) at 37 °C with stirring. At various time points 1 mL of the external PBS was extracted and replaced with 1 mL of fresh PBS. The presence of drug in the collected PBS was determined using UV-VIS spectroscopy as before.

[4] = test system: human pancreatic adenocarcinoma (BxPC-3) cells; test: MTT cytotoxicity assay; format: cell-based
Experimental: Finally the viability was measured with the MTT assay in human pancreatic adenocarcinoma (BxPC-3) cells using 2 with and without the polymer encapsulation; the results are shown in Figure 6.
An MTT assay was carried out using human pancreatic adenocarcinoma (BxPC-3) cells. Cells were cultured in RPMI medium containing 10% FBS and 1% penicillin streptomycin (Penstrep). […] The experiments were performed in triplicate (n = 3) using eight wells per plate for each data point. […] Polymeric self-assemblies were formed by probe sonicating the polymers in sterile water (5 mg/mL). The polymer stock solutions were diluted to 0.005 mg/mL with media. A drug stock solution (20 mg/mL) was prepared by diluting compound 2 in DMSO. The formulations were prepared by addition of compound 2 into 0.005 mg/mL polymer solution.

[5] = test system: MDA-MB-231 (breast) human tumour cell line; design: method as in PMID 26966420; conditions: read-out: IC50, thymidine uptake assay; cited from earlier work
[6] = test system: MDA-MB-231; design: method as in PMID 22698703, doi:10.1039/c3md00320e, PMID 26966420; conditions: cited from earlier work
[7] = test system: HCT116; design: method as in PMID 22698703, doi:10.1039/c3md00320e, PMID 26966420; conditions: cited from earlier work
[8] = test system: HCT116 (colon) human tumour cell line; test: Thymidine uptake cell proliferation assay; format: cell-based; conditions: 1 μM, untreated cells = 100% growth
Experimental: (§1) Thymidine uptake was used for viability testing on the MDA-MB-231 (breast) and HCT116 (colon) human tumour cell lines. This measurement reflects the anti-proliferative/cytotoxic effects of the compounds. A concentration of 1 μM was used. […] To corroborate these findings, derivatives 3, 4, and 6 were tested against the National Cancer Institute’s human tumour cell line panel (NCI60). […] The leukaemia cell lines K-562 (45.5% growth) and SR (47.7% growth) were the most affected followed by the melanoma MDA-MB-435 (53.9% growth) cell line. This is an interesting observation since the thieno[2,3-b]pyridines are often active against leukaemia cells and the MDA-MB-435 cell line, in particular.
(§2) As described in detail previously cell proliferation was measured using a thymidine incorporation assay by seeding 3000 cells in each well using 96-well plates with varying concentrations of inhibitors for three days. Experiments were performed in triplicate with a minimum of two experimental repeats. Briefly, 0.04 µCi of ^3H-thymidine was added to each well and incubated for five hours, after which the cells were gathered onto glass fibre filters using an automated TomTec harvester. Filters were incubated with Betaplate Scint and thymidine incorporation determined with Trilux/Betaplate counter showing the percentage of cells incorporated with ^3H-thymidine into the DNA helix.

[9] = test system: MDA-MB-231 (breast) human tumour cell line; test: Thymidine uptake cell proliferation assay; format: cell-based; conditions: 1 μM, untreated cells = 100% growth
Experimental: as §1, §2

[10] = test system: NCI60 human tumour cell line panel; test: NCI60 human tumour cell line panel growth inhibition (SRB); format: cell-based
Experimental: as §1
(§3) Furthermore, derivatives 3, 4, and 6 were sent to the National Cancer Institute’s Developmental Therapeutic Program (DTP) where they were screened against a panel of sixty human tumour cell lines (NCI60, for further information see [18, 29, 30] and a complete description in the Supplementary Materials section).
(§4) Figure S3. Compound 2 UV-vis calibration in DMSO at 304 nm.
(§5) NCI's 60-cell line panel growth inhibition assay
The NCI's human 60-cell lines were grown in RPMI 1640 medium containing 5% FBS and 2mM L-glutamine. Cells were inoculated into 96-well plates at plating densities 5000–40 000 cells per well, based on the doubling time of individual cell lines. Plates were then incubated at 37 °C, 5% CO2, 95% air and 100% relative humidity for 24 h prior to addition of tested compounds. After 24 h, two plates of each cell line were fixed in situ with trichloroacetic acid (TCA), to represent a measurement of the cell population for each cell line at the time of tested compound addition. Tested compounds were solubilized in DMSO at a concentration 400 times that of the desired final maximum test concentration and stored frozen prior to use. An aliquot of each frozen tested concentrate was thawed and diluted to twice the desired final maximum test concentration with complete medium containing 50 μg mL-1 gentamicin. 100 μL aliquot of the tested drug diluted solution was added to appropriate wells containing 100 μL of medium, resulting in the required final drug doses. Following tested compound addition, plates were incubated for additional 48 h. The assay was terminated by the addition of cold TCA for adherent cells. Cells were fixed in situ by addition of 50 μL of cold 50% (w/v) TCA (final concentration, 10% TCA) and incubated for 60 min at 4 °C. The supernatant was discarded, and plates were washed 5 times with water and air dried. Sulforhodamine B (SRB) solution (100 μL), 0.4%(w/v) in 1% acetic acid was added to each well, and plates were incubated for 10 min at rt. […] The bound stain was subsequently solubilized with 10 mM Trizma base, and the absorbance was measured on a plate reader at 515 nm. […]

[11] = test system: leukaemia cell line K-562; test: NCI60 panel growth inhibition (SRB); format: cell-based, human; conditions: K-562, NCI60
Experimental: as §1, §3, §4, §5
(§6) The NCI's human 60-cell lines were grown in RPMI 1640 medium containing 5% FBS and 2mM L-glutamine. Cells were inoculated into 96-well plates at plating densities 5000–40 000 cells per well, based on the doubling time of individual cell lines. Plates were then incubated at 37 °C, 5% CO2, 95% air and 100% relative humidity for 24 h prior to addition of tested compounds. After 24 h, two plates of each cell line were fixed in situ with trichloroacetic acid (TCA), to represent a measurement of the cell population for each cell line at the time of tested compound addition. Tested compounds were solubilized in DMSO at a concentration 400 times that of the desired final maximum test concentration and stored frozen prior to use. […] The bound stain was subsequently solubilized with 10 mM Trizma base, and the absorbance was measured on a plate reader at 515 nm. […]

[12] = test system: leukaemia cell line SR; test: NCI60 panel growth inhibition (SRB); format: cell-based, human
Experimental: as §1, §3, §4, §5, §6

[13] = test system: melanoma MDA-MB-435 cell line; test: NCI60 panel growth inhibition (SRB); format: cell-based, human; conditions: MDA-MB-435, NCI60
Experimental: as §1, §3, §4, §5, §6

[14] = HPLC, read-out: Experimental S, log S (converted)

SMILES	solubility thermodynamic at 15 min ([1]; HPLC)	solubility at 15 min [1, 14]	average relative growth, thymidine assay [8]	average relative growth, thymidine assay [9]	activity against NCI60 panel [10]	also measured
Cc1c(Cl)cccc1NC(=O)c1sc2nc3c(cc2c1N)C(=O)CCC3 [Compound 2]	3.53 µg/mL (≈ 9.15 µM)	10 µM				drug encapsulation (maximum) in Ch5 polymer [2]: 0.59 mg/mL; time to plateau of release from the polymer ensemble into the aqueous phase [3]: ~ 40 min; IC50 ([4]; BXPC-3, 24 h exposure, read-out: IC50, BxPC-3 viability (MTT)): 2.5 µg/mL and 6.48 µM; viability at 12.95 µM ([4]; BxPC-3, 5 μg/mL (12.95 μM), read-out: cell viability (activity remaining)): ~30%; IC50 [5]: 164 nM; GI50 [6]: 141 nM; GI50 [7]: 67 nM
Nc1c(C(=O)Nc2ccccc2)n(CCCN2CCOCC2)c2nc3c(cc12)CCCC3 [Compound 3]		3160 µM	90.3%	99.5%	very modest or no activity	solubility increase as compared to 1 [1]: three orders of a magnitude; water solubility [1]: 1300 µg/mL (≈ 3000 µM); Experimental S ([1]; HPLC): 1339.8 µg/mL and 1336.7 µg/mL; solubility at 15 min ([1]; read-out: water solubility): ~1300 µg/mL
Nc1c(C(=O)Nc2ccccc2)n(CCCc2ccccc2)c2nc3c(cc12)CCCC3 [Compound 4]	0.2 µg/mL (≈ 0.471 µM)	0.501 µM	103.6%	105.4%	very modest or no activity	
Cn1c(C(=O)Nc2cccc3ccccc23)c(N)c2cc3c(nc21)CCCC3 [Compound 5]	0.18 µg/mL (≈ 0.486 µM)	0.501 µM	102.1%	97.2%		
Cn1c(C(=O)Nc2ccccc2)c(N)c2cc3c(nc21)CCCCCC3 [Compound 7]	0.61 µg/mL (≈ 1.75 µM)	1.58 µM	99.0%	100.7%		
Cc1cccc(NC(=O)c2c(N)c3cc4c(nc3n2C)CCCC4)c1C [Compound 6]	0.76 µg/mL (≈ 2.18 µM)	2 µM	104.2%	106.0%	very modest or no activity	overall relative growth for the 60 cell lines ([10]; untreated cells = 100% growth): 77%; growth [11]: 45.5%; growth [12]: 47.7%; growth [13]: 53.9%
Nc1c(C(=O)Nc2ccccc2)sc2nc3c(cc12)C(=O)CCC3 [Compound 1, 3-amino-5-oxo-N-phenyl-5,6,7,8-tetrahydrothieno[2,3-b]quinoline-2-carboxamide]	1.21 µg/mL (≈ 3.59 µM)	3.98 µM				Experimental S ([1]; HPLC): 1.2 µg/mL
